According to ChEMBL document CHEMBL1201862, “PubChem BioAssay data set” (2004):
The source made the active and inactive calls.

Tests used:
[1] = test system: Escherichia coli; assay: microbe, parasite or virus in culture
[2] = test system: Escherichia coli; assay: microbe, parasite or virus in culture; remark: listed apart in the source
[3] = biological target: T1, Calpain-2 catalytic subunit (Sus scrofa, UniProt P43367); assay: m-calpain protease blockers, concentration series – biochemical, fluorogenic peptide substrate, dose response (AID 1420); assay type: functional
T1 sequence (P43367 whole entry): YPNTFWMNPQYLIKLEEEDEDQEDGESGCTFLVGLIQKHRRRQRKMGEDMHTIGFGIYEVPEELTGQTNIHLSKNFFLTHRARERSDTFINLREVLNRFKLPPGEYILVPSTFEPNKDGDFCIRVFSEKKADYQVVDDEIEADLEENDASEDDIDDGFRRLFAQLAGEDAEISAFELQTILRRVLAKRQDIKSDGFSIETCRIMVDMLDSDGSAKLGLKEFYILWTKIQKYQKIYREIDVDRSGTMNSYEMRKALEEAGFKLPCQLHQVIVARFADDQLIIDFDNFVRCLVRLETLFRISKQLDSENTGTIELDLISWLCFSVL

[4] = biological target: T2, DNA topoisomerase (Yersinia pestis, UniProt A0A2S9PM60); assay: Yersinia topoisomerase I cleavage product accumulation – biochemical, cherry-pick, dose response (AID 588525)
T2 sequence (A0A2S9PM60 whole entry): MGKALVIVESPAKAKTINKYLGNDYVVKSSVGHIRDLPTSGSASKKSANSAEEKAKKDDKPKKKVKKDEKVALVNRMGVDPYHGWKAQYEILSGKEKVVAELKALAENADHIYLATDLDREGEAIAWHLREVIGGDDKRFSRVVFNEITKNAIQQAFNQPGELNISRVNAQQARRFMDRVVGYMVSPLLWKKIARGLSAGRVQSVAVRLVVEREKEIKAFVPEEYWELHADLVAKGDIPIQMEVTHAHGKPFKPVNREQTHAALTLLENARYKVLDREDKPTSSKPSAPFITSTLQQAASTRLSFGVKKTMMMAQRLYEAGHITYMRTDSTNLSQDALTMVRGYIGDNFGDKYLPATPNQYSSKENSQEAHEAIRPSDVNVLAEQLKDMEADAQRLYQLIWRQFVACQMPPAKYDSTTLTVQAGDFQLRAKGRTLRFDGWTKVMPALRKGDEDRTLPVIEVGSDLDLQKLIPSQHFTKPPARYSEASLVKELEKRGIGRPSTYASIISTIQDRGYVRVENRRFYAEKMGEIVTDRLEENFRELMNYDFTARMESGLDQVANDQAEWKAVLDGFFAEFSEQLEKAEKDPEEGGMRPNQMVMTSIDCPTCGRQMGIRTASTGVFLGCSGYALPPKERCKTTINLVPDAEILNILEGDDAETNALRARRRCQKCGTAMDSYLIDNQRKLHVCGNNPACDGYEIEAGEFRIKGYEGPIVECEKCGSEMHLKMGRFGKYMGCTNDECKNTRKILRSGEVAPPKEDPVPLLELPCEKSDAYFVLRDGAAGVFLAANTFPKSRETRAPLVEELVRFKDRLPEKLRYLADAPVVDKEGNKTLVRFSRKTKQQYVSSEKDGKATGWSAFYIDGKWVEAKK

[5] = biological target: NS3 (Hepatitis C virus, UniProt A3EZJ3); assay: PubChem AID 2173; design: species or system Hepacivirus hominis
Chain of NS3 (A3EZJ3 whole entry): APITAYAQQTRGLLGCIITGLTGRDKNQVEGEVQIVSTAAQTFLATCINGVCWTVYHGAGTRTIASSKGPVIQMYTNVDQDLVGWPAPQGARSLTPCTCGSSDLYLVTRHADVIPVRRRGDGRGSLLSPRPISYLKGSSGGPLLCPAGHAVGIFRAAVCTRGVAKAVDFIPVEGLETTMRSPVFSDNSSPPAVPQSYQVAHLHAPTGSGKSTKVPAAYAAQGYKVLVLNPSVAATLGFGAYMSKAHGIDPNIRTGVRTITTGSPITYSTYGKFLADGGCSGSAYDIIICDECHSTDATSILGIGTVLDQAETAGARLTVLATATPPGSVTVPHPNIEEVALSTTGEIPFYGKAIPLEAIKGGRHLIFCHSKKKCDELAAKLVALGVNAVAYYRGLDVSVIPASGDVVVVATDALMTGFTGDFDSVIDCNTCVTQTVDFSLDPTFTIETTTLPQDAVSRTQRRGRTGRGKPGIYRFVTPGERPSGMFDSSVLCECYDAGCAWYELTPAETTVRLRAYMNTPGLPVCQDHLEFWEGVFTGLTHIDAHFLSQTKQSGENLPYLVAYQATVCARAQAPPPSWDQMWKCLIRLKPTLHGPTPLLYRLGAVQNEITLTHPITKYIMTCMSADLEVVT

[6] = test system: Vero; assay: viability of Vero cells under compound – cytotoxicity control for flavivirus capping enzyme inhibitors (AID 588742); assay type: functional; conditions: Chlorocebus sabaeus
[7] = biological target: Genome polyprotein (dengue virus type 2, UniProt P29990); assay: flavivirus cap methylation enzyme inhibition – biochemical, confirmation dose response, primary screen (AID 588689); assay type: functional
Chain of Genome polyprotein (P29990 2492-3391 limits assumed): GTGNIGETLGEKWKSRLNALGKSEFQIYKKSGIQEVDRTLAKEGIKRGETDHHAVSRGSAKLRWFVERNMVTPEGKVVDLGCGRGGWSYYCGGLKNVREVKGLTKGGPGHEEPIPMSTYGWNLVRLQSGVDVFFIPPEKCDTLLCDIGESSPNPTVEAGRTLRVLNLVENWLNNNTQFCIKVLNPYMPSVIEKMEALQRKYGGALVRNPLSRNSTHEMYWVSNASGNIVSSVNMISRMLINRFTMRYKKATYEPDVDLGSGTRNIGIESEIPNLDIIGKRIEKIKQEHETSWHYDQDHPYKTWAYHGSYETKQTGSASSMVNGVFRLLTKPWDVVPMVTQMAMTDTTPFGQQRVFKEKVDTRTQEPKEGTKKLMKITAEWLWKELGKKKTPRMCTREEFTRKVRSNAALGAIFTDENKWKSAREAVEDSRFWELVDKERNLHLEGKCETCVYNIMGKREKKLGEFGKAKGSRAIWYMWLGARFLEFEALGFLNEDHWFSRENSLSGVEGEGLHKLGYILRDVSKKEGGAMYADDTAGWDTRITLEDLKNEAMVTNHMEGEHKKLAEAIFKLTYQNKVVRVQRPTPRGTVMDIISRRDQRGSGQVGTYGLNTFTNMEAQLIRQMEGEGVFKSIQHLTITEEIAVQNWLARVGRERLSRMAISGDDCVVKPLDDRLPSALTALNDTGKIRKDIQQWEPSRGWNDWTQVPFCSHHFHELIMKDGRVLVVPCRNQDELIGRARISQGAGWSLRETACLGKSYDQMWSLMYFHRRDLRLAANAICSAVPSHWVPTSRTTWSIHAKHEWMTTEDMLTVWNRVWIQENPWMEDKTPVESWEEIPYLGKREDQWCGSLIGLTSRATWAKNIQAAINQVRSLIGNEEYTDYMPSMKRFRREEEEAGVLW

[8] = biological target: T3, Low molecular weight phosphotyrosine protein phosphatase (Homo sapiens, UniProt P24666); assay type: functional; conditions: read-out: IC50_Mean
T3 sequence (P24666 whole entry): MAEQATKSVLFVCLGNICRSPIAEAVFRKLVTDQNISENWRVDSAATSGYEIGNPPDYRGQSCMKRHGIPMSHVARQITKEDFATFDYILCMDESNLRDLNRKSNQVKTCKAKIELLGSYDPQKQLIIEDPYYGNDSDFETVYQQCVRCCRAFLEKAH

[9] = Late-stage probe development counterscreen for inhibitors of the Hepatitis C Virus non-structural protein 3 helicase (NS3): luminescence-based cell-based dose response assay to determine whether compounds that inhibit replication of HCV RNA replicon are cytotoxic. [Related pubchem assays (depositor defined):AID1800, AID1830, AID1845, AID1943, AID1945, AID2172, AID2173, AID2474, AID2476]; assay type: functional
[10] = biological target: T3, Low molecular weight phosphotyrosine protein phosphatase; assay type: functional; conditions: read-out: IC50_Mean; remark: listed apart in the source
[11] = test system: INS1; assay: beta-cell survival under cytokine stress – INS-1E, ATP luminescence, dry powder, dose response (AID 488844); assay type: functional, cell-based; conditions: Rattus norvegicus
[12] = reduction of Shn3 3'UTR-driven luciferase in osteoblasts – cell-based, Clone20 osteoblasts, firefly luciferase, cherry-picked, dose response (AID 624132); assay type: functional;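 note: firefly luciferase luminescence from reporter carrying the Shn3 3'UTR in osteoblasts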
[13] = non-specific 3'UTR reporter inhibition in Clone20-Shn3RL – cell-based, Renilla luciferase, cherry-picked, counter-screen for Shn3 inhibitor project, dose response (AID 624133); assay type: functional
[14] = test system: Jurkat; assay: blockers of NF-kB activation in T cells – Jurkat, luciferase reporter, luminescence, B- and T-cell, dose response (AID 489004); assay type: functional, cell-based; conditions: Homo sapiens;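 note: NF-kB luciferase reporter Jurkat cells stimulated with PMA plus ionomycin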
[15] = biological target: Photoreceptor-specific nuclear receptor (Homo sapiens, UniProt Q9Y5X4); assay type: functional, cell-based;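 note: CHO-S cells with Gal4-NCOR and VP16-NR2E3 two-hybrid luciferase reporter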
Chain of Photoreceptor-specific nuclear receptor (Q9Y5X4 whole entry, the tested form may be a part): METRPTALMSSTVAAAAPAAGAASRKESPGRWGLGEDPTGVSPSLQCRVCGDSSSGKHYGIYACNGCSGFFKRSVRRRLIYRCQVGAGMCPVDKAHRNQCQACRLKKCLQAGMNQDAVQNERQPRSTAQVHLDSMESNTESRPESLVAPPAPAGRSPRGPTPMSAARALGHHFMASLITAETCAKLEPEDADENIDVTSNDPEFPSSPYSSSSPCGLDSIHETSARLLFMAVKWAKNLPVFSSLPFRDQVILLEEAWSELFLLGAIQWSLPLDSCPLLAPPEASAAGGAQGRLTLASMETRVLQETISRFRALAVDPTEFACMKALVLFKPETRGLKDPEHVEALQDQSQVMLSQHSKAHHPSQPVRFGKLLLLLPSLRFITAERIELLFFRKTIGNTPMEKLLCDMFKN

[16] = test system: A-375; assay: MITF: Counter assay: A375 proliferation Measured in Cell-Based System Using Plate Reader - 2084-03_Inhibitor_Dose_DryPowder_Activity. [Related pubchem assays (depositor defined):AID488944]; assay type: functional; conditions: Homo sapiens
[17] = biological target: T4, Microphthalmia-associated transcription factor (Homo sapiens, UniProt O75030); assay: reducers of TRPM1 reporter luminescence, concentration series – cell-based, SK-MEL-5, cherry-picked, set 3, MITF inhibitor project, dose response (AID 493073); assay type: functional;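 note: SK-MEL-5 melanoma cells with luciferase driven by the MITF target TRPM1 promoter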
T4 sequence (O75030 whole entry): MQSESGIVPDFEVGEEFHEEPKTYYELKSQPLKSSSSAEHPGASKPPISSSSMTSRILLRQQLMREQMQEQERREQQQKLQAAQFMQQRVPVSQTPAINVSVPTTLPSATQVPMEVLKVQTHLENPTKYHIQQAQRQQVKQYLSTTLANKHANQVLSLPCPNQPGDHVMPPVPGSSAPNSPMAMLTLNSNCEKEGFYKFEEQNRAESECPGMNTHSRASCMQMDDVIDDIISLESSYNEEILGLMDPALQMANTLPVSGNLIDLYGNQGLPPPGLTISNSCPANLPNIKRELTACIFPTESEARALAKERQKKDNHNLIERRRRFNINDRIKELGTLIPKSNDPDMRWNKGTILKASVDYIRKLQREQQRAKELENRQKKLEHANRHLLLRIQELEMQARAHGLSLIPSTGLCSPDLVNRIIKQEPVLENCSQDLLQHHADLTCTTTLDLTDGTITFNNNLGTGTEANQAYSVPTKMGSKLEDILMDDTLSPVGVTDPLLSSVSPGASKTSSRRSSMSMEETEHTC

[18] = HEK-293T viability loss, compound-treated – cell-based, uHTS hits, cytotoxicity control for B/T-cell NF-kB inhibitor project, dose response (AID 489019); assay type: functional;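 note: IC50 reflects cytotoxicity as loss of cell viability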
[19] = test system: A-375; assay: proliferation inhibition in MITF-low A375 cells – cell-based, cherry-pick samples, set 2, counter-screen for MITF modulator project, dose response (AID 540335); assay type: functional; conditions: Homo sapiens
[20] = biological target: Dual specificity protein kinase CLK1 (Homo sapiens, UniProt P49759); assay: inhibition of human CLK1 activity – biochemical, cherry-picked samples, selectivity assay for Dyrk1A inhibitor project, dose response (AID 588811)
Chain of Dual specificity protein kinase CLK1 (P49759 whole entry): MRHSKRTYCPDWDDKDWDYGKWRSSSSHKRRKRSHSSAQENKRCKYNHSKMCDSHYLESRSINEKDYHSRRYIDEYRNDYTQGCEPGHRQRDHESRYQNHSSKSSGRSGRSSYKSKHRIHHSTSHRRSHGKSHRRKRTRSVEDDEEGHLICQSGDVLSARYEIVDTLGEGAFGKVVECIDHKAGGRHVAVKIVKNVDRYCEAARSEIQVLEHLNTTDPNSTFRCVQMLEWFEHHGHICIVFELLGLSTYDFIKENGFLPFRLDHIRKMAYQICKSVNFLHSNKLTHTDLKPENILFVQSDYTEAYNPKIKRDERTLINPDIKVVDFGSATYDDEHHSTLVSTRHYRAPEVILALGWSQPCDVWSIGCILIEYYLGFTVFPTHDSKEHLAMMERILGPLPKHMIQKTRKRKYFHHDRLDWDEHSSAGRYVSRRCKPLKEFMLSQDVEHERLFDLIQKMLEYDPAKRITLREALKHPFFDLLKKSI

[21] = viability of uninfected HEp-2 cells – cell-based, HTS, cytotoxicity control for RSV inhibitor project, dose response (AID 2410); assay type: functional; conditions: human respiratory syncytial virus
[22] = biological target: Dual specificity tyrosine-phosphorylation-regulated kinase 1A (Rattus norvegicus, UniProt Q63470); assay type: biochemical, Homo sapiens

SMILES: O=C(CCC(=O)OCc1cccc(C(=O)Oc2ccccc2)c1)Nc1cccc2ccccc12
- AC50 [1]: 212 µM (active)
- AC50 [2]: 23.5 µM (active)
- IC50 [3]: < 0.4 µM (not active)

SMILES: CCCCCOc1ccc(C2C(C(=O)c3ccc(C)o3)=C(O)C(=O)N2c2cc(C)on2)cc1 (configuration not stated)
- AC50 [4]: 6.14 µM (active)
- IC50 [5]: 2.44 µM (active)
- CC50 [6]: > 40 µM (active)
- IC50 [7]: 31.6 µM (active)
- IC50 [8]: > 80 µM (inactive)
- CC50 [9]: > 100 µM (inactive)
- IC50 [10]: 2.21 µM (active)

SMILES: COc1ccc(S(=O)(=O)N(C)C[C@@H]2Oc3c(NS(=O)(=O)c4ccc(C)cc4)cccc3C(=O)N([C@@H](C)CO)C[C@H]2C)cc1
- AC50 [11]: > 235 µM (inactive)

SMILES: C=CCn1c(C)cc(C(=O)CN2C(=O)c3ccccc3S2(=O)=O)c1C
- AC50 [12]: 0.974 µM (active)
- AC50 [13]: 23.2 µM (active)
- IC50 [14]: 1.17 µM (active)
- IC50 [15]: 2.46 µM (active)
- AC50 [16]: > 35 µM (active)
- AC50 [17]: 0.666 µM (active)
- IC50 [18]: > 80 µM (inactive)
- AC50 [19]: > 35 µM (active)

SMILES: O=c1cc(-c2ccccc2Cl)oc2c(NS(=O)(=O)c3ccccc3C(F)(F)F)ccc(O)c12
- AC50 [20]: 18.9 µM (active)
- CC50 [21]: 48.5 µM (active)
- AC50 [22]: 65.4 µM (active)
